Measured values published in US4481197A, “Anti-inflammatory deoxyribosides” (Burroughs Wellcome Co., priority 1982, dated 1984).

Legend:
[1] = tested on: carrageenan pleurisy (3 hour exudate volume); assay: Carrageenan Pleurisy Assay (CPA), acute anti-inflammatory activity; assay type: in vivo; conditions: statement in words
Description: Following the procedure described by Vinegar et al in Proc. Soc. Exp. Biol. Med.,143, 711, (1973), and recently modified (Vinegar et al., Eur. J. Rheum. Inflam. 1, 204 (1978)) the acute anti-inflammatory activity of 4-amino-1-(2-deoxy-β-D-ribofuranosyl)-1H-imidazo-[4,5-c]-pyridine was compared with that of known anti-inflammatory drugs. The average 3 hour exudate volume for each drug-treated group was determined and the % inhibition relative to solvent-fed control animals calculated, the ED50 (mg/kg of body weight) being the dose required to reduce the 3 hour exudate volume by 50%. There were 5 animals in each drug-treated group and the control group.

[2] = tested on: mouse neutrophil chemotaxis; assay: Mouse neutrophil chemotaxis; assay type: cell-based
inflammation = assay: Anti-inflammatory effectiveness by route; assay type: in vivo; conditions: orally, systemically and locally
[3] = Side effects / liver damage in animal models; conditions: in vivo
Analgesic activity = conditions: in vivo
[4] = tested on: microbial purine nucleoside phosphorylase; conditions: Doskocil and Holy 1977; cited from earlier work

Nc1nccc2c1ncn2[C@H]1C[C@H](O)[C@@H](CO)O1 [4-amino-1-(2-deoxy-β-D-ribofuranosyl)-1H-imidazo-[4,5-c]-pyridine]
inhibition of carrageenan-induced pleurisy [1]: potent inhibitor
inhibition of mouse neutrophil chemotaxis [2]: potent inhibitor
effectiveness as anti-inflammatory agent (inflammation): effective
side effects associated with prostaglandin inhibitors (gastric damage, inhibition of platelet aggregation) [3]: free of the side effects
side effects of the anti-inflammatory steroids [3]: free of the side effects
analgesic activity per se (Analgesic activity): no analgesic activity per se

Nc1ncnc2c1ccn2[C@@H]1O[C@H](CO)[C@@H](O)[C@H]1O [7-deazaadenosine]
substrate for microbial purine nucleoside phosphorylase [4]: not to be substrates

OC[C@H]1O[C@@H](n2ccc3c(O)ncnc32)[C@H](O)[C@@H]1O [7-deazainosine]
substrate for microbial purine nucleoside phosphorylase [4]: not to be substrates

Nc1nc2c(nnn2[C@@H]2O[C@H](CO)[C@@H](O)[C@H]2O)c(=O)[nH]1 [S-azaguanosine]
substrate for microbial purine nucleoside phosphorylase [4]: not to be substrates
